In brackets after ≈: the same amount, converted by molar mass. Where two headings read alike, the source gives them in different places.
Assays:
[1] = molecular target: E. coli RNA polymerase (Escherichia coli, UniProt P0A8T7+P0A8V2); test: In vitro transcription assay, E. coli RNA polymerase; assay type: biochemical; settings: for IC50: Table II, read-out: In vitro transcription (E.coli RNAP) IC50 (converted); for relative potency in in vitro transcription assay (FIG. 20a,b): comparison in words
Sequence of E. coli RNA polymerase (P0A8V2 whole entry): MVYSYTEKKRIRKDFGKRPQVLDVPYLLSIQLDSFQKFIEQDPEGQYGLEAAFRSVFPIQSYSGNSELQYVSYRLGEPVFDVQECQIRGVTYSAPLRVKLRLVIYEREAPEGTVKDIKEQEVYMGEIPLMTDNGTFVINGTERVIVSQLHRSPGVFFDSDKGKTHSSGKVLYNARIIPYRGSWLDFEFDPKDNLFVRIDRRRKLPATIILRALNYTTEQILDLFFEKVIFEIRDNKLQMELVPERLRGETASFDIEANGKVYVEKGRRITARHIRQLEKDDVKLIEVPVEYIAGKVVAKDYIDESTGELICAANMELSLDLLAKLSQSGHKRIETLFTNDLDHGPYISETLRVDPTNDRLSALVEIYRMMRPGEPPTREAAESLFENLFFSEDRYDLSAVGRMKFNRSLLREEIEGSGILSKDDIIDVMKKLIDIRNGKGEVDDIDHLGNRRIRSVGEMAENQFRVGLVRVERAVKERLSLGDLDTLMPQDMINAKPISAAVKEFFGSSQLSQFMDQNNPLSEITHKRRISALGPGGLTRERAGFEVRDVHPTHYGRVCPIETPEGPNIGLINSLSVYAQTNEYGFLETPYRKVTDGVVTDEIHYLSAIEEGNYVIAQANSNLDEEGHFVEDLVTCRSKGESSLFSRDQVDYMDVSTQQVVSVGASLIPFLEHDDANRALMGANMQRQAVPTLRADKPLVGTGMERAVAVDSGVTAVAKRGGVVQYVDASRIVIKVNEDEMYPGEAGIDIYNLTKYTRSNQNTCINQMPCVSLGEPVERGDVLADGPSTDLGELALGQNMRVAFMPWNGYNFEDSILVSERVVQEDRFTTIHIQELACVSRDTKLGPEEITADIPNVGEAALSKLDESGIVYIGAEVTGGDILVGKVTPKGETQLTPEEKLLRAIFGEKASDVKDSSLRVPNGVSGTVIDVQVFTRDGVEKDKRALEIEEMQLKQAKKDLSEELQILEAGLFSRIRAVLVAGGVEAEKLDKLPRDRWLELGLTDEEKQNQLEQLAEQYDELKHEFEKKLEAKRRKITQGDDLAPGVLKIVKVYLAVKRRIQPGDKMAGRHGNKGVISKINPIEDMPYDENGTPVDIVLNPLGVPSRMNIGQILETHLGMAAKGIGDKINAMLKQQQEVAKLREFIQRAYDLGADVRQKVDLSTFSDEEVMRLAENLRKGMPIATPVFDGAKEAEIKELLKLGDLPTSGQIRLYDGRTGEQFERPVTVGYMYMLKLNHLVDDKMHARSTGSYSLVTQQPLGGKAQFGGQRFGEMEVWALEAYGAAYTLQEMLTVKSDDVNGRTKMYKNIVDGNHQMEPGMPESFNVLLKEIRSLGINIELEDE
Sequence of E. coli RNA polymerase (P0A8T7 whole entry): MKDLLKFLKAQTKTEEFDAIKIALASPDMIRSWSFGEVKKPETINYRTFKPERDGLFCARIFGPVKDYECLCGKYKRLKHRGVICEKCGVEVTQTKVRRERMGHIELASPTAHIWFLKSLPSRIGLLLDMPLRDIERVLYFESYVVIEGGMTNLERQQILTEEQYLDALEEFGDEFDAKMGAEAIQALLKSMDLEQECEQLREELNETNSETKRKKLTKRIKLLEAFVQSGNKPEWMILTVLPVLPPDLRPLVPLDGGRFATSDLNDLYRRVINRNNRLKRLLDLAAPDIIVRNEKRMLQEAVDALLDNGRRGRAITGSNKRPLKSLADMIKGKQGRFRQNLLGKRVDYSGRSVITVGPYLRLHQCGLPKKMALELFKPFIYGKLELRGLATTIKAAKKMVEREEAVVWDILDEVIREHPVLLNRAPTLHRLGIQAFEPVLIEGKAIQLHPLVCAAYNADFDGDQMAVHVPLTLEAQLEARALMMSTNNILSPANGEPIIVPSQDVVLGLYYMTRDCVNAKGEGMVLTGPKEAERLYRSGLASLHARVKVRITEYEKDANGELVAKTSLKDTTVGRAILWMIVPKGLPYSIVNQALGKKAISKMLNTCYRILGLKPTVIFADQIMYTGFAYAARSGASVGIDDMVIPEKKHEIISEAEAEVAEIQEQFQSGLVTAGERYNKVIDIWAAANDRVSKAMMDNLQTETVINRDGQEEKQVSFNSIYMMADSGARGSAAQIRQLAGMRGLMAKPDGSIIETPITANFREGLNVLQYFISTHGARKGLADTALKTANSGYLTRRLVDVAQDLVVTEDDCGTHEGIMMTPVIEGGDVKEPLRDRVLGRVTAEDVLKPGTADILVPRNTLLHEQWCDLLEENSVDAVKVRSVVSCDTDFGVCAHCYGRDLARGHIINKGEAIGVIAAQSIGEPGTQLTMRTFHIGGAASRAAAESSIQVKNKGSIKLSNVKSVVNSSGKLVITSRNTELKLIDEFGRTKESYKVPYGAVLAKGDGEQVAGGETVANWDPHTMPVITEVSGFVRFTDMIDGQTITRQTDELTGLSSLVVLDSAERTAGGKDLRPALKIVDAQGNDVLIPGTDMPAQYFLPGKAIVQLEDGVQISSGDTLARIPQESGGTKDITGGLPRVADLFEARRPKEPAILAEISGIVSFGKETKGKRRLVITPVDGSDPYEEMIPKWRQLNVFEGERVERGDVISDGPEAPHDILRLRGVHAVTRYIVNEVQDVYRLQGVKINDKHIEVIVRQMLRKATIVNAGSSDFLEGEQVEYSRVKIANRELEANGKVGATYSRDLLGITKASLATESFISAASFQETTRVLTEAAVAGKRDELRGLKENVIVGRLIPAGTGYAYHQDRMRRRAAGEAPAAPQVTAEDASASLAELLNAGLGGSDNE
Sequence of E. coli RNA polymerase (P0A7Z4 whole entry partner): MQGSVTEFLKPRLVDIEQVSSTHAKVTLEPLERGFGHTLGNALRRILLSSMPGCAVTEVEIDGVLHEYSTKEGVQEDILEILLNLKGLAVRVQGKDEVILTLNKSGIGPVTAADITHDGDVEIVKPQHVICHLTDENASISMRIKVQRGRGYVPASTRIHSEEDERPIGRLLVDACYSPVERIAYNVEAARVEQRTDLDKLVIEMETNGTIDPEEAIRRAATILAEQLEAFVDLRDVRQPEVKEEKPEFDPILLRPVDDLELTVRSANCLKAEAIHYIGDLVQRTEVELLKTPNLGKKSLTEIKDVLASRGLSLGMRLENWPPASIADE
Sequence of E. coli RNA polymerase (P0A800 whole entry partner): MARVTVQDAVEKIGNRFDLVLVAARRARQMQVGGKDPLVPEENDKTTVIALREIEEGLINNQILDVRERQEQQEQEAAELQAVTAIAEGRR
Experimental: In vitro transcription reactions. [α^32 P] UTP-incorporated RNA was synthesized in 50 μl reaction volumes containing transcription buffer (50 mM Tris-HCl, pH 8.0, 200 mM KCl, 10 mM MgCl2, 10 mM DTT and 1.5 μM BSA), 1 μg of DNA template, 4 μM UTP containing 5 μCi of [α^32 P] UTP, 400 μM each of ATP, GTP, and CTP. After incubation for 60 minutes at 25° C., the reaction is terminated with 100 μl 10% TCA, which also precipitates the newly transcribed RNA.
Biological Evaluation of (±)-Myxopyronin A & B. The biological activities of the myxypyronins were evaluated with an in vitro transcription assay using E. coli RNA polymerase (FIG. 20a,b). […] As a validation of the in vitro transcription assay, a known transcription inhibitor, rifampicin, was included in the assay.

[2] = test system: S. aureus*; test: Broth microdilution MIC, S. aureus* mutant strain; assay type: cell-based; settings: Staphylococcus aureus, read-out: MIC S. aureus*
Experimental: (§1) Different dilutions are performed for natural product extracts.

[3] = test system: E. coli* (mutant strain that has permeabilized cell wall); test: Broth microdilution MIC, E. coli* mutant with permeabilized cell wall; assay type: cell-based; settings: Escherichia coli, read-out: MIC E. coli*
Experimental: as §1

[4] = test system: S. aureus; test: Broth microdilution MIC, S. aureus; assay type: cell-based; settings: for MIC: Staphylococcus aureus, Table II
Experimental: as §1

[5] = test system: E. coli; test: Broth microdilution MIC, E. coli; assay type: cell-based; settings: Escherichia coli; Table II
Experimental: as §1

[6] = test system: rifampicin resistant strains; test: microbe, parasite or virus in culture; settings: Staphylococcus aureus
Experimental: (§2) Microdilution Minimal Inhibitory Concentration (MIC) and Minimum Bactericidal Concentration (MBC) Assays
(§3) The MIC is reported as a range between the concentration at which no growth is observed and the concentration of the dilution which immediately followed. Selected inhibitors from the RNA polymerase screen described above were tested for their ability to inhibit bacterial growth in a broth microdilution assay as follows. […] Dilution of antimicrobial agents is performed in a sterile, covered 96-well microliter plate with flat bottom wells (Costar #9017), and each well contains 100 μL of both +/- antimicrobial agent. The final concentrations of the small molecule antimicrobial agents are 100, 50, 25, 12.5, 6.25, 3.12, 1.56, 0.78, 0.39, 0.20, 0.10, and 0.05 μg/mL, respectively. Different dilutions are performed for natural product extracts. They are first diluted 100-fold with Mueller-Hinton broth. The final dilutions of the natural product extracts are 200, 400, 800, 1600, 3200, 6400, 12800, 25600, 51200, 1×105, 2×105, and 4×105 -fold. A 1 % DMSO (no-drug) row is prepared in Mueller-Hinton broth as a control for 100% growth on each plate. A Mueller-Hinton broth only with no bacteria growth is also included as a negative control for each plate. Ampicillin and rifampin are used as positive controls against all bacterial strains in every experiment.
(§4) The overnight culture of a single colony is diluted in sterile Mueller-Hinton broth so that, after inoculation, each well contains approximately 5×10^5 CFU/mL. Within 15 minutes of preparation, […] of the adjusted inoculum suspension is added to the microliter plate. Each well is diluted with an equal volume of the antimicrobial agent/control substance diluted with sterile Mueller-Hinton broth. The inoculated microliter plate is incubated at 35° C. for 16-20 hours. The turbidity of each well is determined by measuring the absorbance at 595 nm on the BioRad Model 3550-UV microplate reader. The rows containing broth only (no cells) serve as a control, and the rows containing the titration of 1% DMSO serve as a control for 100% growth. The average of the broth only controls is subtracted from the average of each duplicate. This value is subsequently normalized to the average of the DMSO controls.

[7] = test system: rifampicin susceptible strains; test: microbe, parasite or virus in culture; settings: Staphylococcus aureus
Experimental: as §2, §3, §4

Structure (SMILES)	IC50 [1]	relative potency in in vitro transcription assay (FIG. 20a,b) [1]	MIC [2]	MIC [3]	MIC [4]	MIC [5]	fold more potent cell-based activities than myxopyronin A ([4]; MIC values of Table II, B versus A)	MIC ([6]; read-out: MIC against resistant strains)	MIC ([6]; read-out: MIC against rifampicin resistant strains)	MIC ([7]; read-out: MIC against susceptible strains, Example 9 statement b281)	MIC ([7]; read-out: MIC against susceptible strains, background statement b31)
CCC/C(C)=C/C=C(\C)C(=O)c1c(O)cc(C(C)CC/C=C/NC(=O)OC)oc1=O (racemic) [(±)-Myxo A, (±)-Myxopyronin A]	47.9 µM	equally potent as the natural product mixtures	8 µg/mL (≈ 19.2 µM)	4 to 8 µg/mL (≈ 9.58 to 19.2 µM)	15 µg/mL (≈ 35.9 µM)	> 30 µg/mL	–	–	–	–	–
CCCC/C(C)=C/C=C(\C)C(=O)c1c(O)cc(C(C)CC/C=C/NC(=O)OC)oc1=O (racemic) [(±)-Myxo B, (±)-Myxopyronin B]	11.6 µM	more potent molecule than A	0.5 µg/mL (≈ 1.16 µM)	2 µg/mL (≈ 4.63 µM)	0.5 µg/mL (≈ 1.16 µM)	> 30 µg/mL	up to 30 fold	–	–	–	–
CO[C@H]1/C=C/O[C@@]2(C)Oc3c(C)c(O)c4c(O)c(c(/C=N/N5CCN(C)CC5)c(O)c4c3C2=O)NC(=O)/C(C)=C\C=C\[C@H](C)[C@H](O)[C@@H](C)[C@@H](O)[C@@H](C)[C@H](OC(C)=O)[C@@H]1C [rifampicin]	–	–	–	–	–	–	–	> 10 µM	> 100 µM	10 µM (≈ 8.23 µg/mL)	~0.01 µM (≈ 0.00823 µg/mL)

Reference: US6022983A, “Pyronin antibacterials, process and novel intermediates thereto” (Scriptgen Pharmaceuticals, Inc., priority 1998, dated 2000)
